The source of these data is PubChem BioAssay (NCI).

“And” between values parts separate entries of the source, which are not always exact repeats. Equal values may be shown once.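 Where inhibition never reached the appropriate level, the endpoint shown equals the highest concentration tested. Otherwise, values were interpolated linearly from a five-concentration, 48-hour dose response in 96-well plates. At the GI50, growth is halved. TGI is the concentration that stops growth completely.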 A value given as a limit tells only on which side of the number the result lay.

Some test systems named below: HCT-116 colon; MALME-3M melanoma; M14 melanoma; K-562 leukemia; ACHN renal; A549 NSCLC; SK-MEL-2 melanoma; LOX IMVI melanoma; NCI-H460 lung; HOP-62 NSCLC.
Common to all, as to test: growth of human tumour cells (NCI), 48 h

With `CCn1c(SC)nnc1-c1cc2c([nH]c3ccccc32)c(-c2cccc(O)c2)n1`, the GI50 is 2.5 µM in the assay on HCT-116 colon; 1370 nM in the assay with MALME-3M melanoma; 1.48 µM with M14 melanoma; 0.547 µM in the assay with K-562 leukemia; 2.12 µM with ACHN renal; 3.61 µM with A549 NSCLC. The GI50 is 1.88 µM in the assay on SK-MEL-2 melanoma, 2.51 µM in the assay on LOX IMVI melanoma, 1.6 µM with NCI-H460 lung and 2.87 µM in the assay with HOP-62 NSCLC. The TGI with HCT-116 colon was 14 µM; with MALME-3M melanoma, 9.58 µM; in the assay on M14 melanoma, 12.5 µM; in the assay on K-562 leukemia, above 100 µM; in the assay with ACHN renal it was 6.47 µM; with A549 NSCLC, 62.9 µM. Further, the TGI in the assay on SK-MEL-2 melanoma was found to be 7.6 µM; with LOX IMVI melanoma, 29.1 µM; in the assay with NCI-H460 lung, 16.6 µM; in the assay on HOP-62 NSCLC it was 15.8 µM.
As to `O=C(COC(=O)[C@H](C[Se][Se]C[C@H](NC(=O)c1ccc(Br)cc1F)C(=O)OCC(=O)c1ccc(F)cc1)NC(=O)c1ccc(Br)cc1F)c1ccc(F)cc1`, the GI50 with HCT-116 colon was 1.02 µM; in the assay on MALME-3M melanoma, 639 nM; with M14 melanoma it was 1.08 µM; with K-562 leukemia, 2.83 µM; with ACHN renal it was 1.65 µM; in the assay on A549 NSCLC it was 1.03 µM. The GI50 in the assay with SK-MEL-2 melanoma is 1.66 µM; in the assay on LOX IMVI melanoma, 1.48 µM; with NCI-H460 lung it was 0.345 µM; with HOP-62 NSCLC it was 0.654 µM. In addition, the TGI in the assay on HCT-116 colon is 3.52 µM; in the assay on MALME-3M melanoma, 1.64 µM; in the assay on M14 melanoma, 2.9 µM; with K-562 leukemia it was above 26.4 µM; in the assay on ACHN renal, 4.18 µM; in the assay on A549 NSCLC it was 4.45 µM. Also, the TGI in the assay on SK-MEL-2 melanoma amounted to 4.74 µM; in the assay with LOX IMVI melanoma, 3.67 µM; in the assay on NCI-H460 lung, 1.27 µM; in the assay on HOP-62 NSCLC, 2.24 µM.
For the molecule `Cc1c(N)nc(C2CC(=O)N2CC(N)C(N)=O)nc1C(=O)NC(C(=O)NC(C)C(O)C(C)C(=O)NC(C(=O)NCCc1nc(-c2nc(C(=O)NCCNCC(C)O)cs2)cs1)C(C)O)C(OC1OC(CO)C(O)C(O)C1OC1OC(CO)C(O)C(OC(N)=O)C1O)c1cnc[nH]1` (stereo not given), the GI50 in the assay with HCT-116 colon was 6.97 µM; in the assay with MALME-3M melanoma it was 1160 nM; with M14 melanoma, 7.91 µM; in the assay with K-562 leukemia, 35.9 µM; in the assay on ACHN renal it was 0.135 µM; in the assay with A549 NSCLC, 4.68 µM. The GI50 with SK-MEL-2 melanoma was 31.7 µM; in the assay on LOX IMVI melanoma it was 0.712 µM; in the assay with NCI-H460 lung, 0.208 µM; in the assay with HOP-62 NSCLC, 0.188 µM. For the same molecule, the TGI with HCT-116 colon was 50 µM and 24.3 µM; with MALME-3M melanoma it was 22.5 µM and 11.9 µM; in the assay on M14 melanoma it was 50 µM and 23.8 µM; with K-562 leukemia, 50 µM and > 100 µM; with ACHN renal it was 3.85 µM and 1.2 µM; in the assay on A549 NSCLC, 50 µM and > 100 µM. In addition, the TGI in the assay with SK-MEL-2 melanoma was 50 µM and > 79.2 µM; in the assay with LOX IMVI melanoma, 9.28 µM and 8.16 µM; in the assay on NCI-H460 lung it was 50 µM and 13.6 µM; in the assay on HOP-62 NSCLC, 6.25 µM and 0.914 µM.
As for `O=C1OC(c2ccccc2)=N/C1=C\c1ccc(N(CCCl)CCCl)cc1`, the TGI with HCT-116 colon, with MALME-3M melanoma, with M14 melanoma, with K-562 leukemia, in the assay with ACHN renal and in the assay with A549 NSCLC was above 100 µM each time. In addition, the TGI in the assay with SK-MEL-2 melanoma, in the assay with LOX IMVI melanoma, with NCI-H460 lung and with HOP-62 NSCLC was above 100 µM in each case.
Take `c1csc(-c2[nH]nc3c2CCc2ccccc2-3)c1`: the GI50 in the assay on HCT-116 colon is 14.9 µM; in the assay with MALME-3M melanoma, 19800 nM; in the assay on M14 melanoma it was 17.8 µM; with K-562 leukemia, 22 µM; in the assay with ACHN renal it was 18.1 µM; with A549 NSCLC it was 13 µM. Moreover, the GI50 with SK-MEL-2 melanoma is 19.7 µM; with LOX IMVI melanoma it was 15.7 µM; with NCI-H460 lung, 9.12 µM; with HOP-62 NSCLC, 12.8 µM. For the same molecule, the TGI is 29.3 µM with HCT-116 colon; 50.4 µM with MALME-3M melanoma; 38 µM in the assay with M14 melanoma; 68.6 µM in the assay on K-562 leukemia; 85 µM in the assay with ACHN renal; 55.4 µM in the assay on A549 NSCLC. In addition, the TGI in the assay with SK-MEL-2 melanoma amounted to 37.9 µM; in the assay on LOX IMVI melanoma, 29.4 µM; in the assay on NCI-H460 lung, 34.3 µM; in the assay with HOP-62 NSCLC, 28.7 µM.
As for `CCOC(=O)/C(=C/c1ccc[nH]1)P(=O)(OCC)OCC`, the TGI with HCT-116 colon, in the assay with MALME-3M melanoma, in the assay on M14 melanoma, with K-562 leukemia, in the assay with ACHN renal and in the assay with A549 NSCLC was above 100 µM each time. Moreover, the TGI in the assay with SK-MEL-2 melanoma, in the assay with LOX IMVI melanoma, in the assay on NCI-H460 lung and in the assay with HOP-62 NSCLC was above 100 µM each time.
For `CC(=O)OC1CCC2(C)C(=CCC3C4CC(CN5CC5)C(=O)C4(C)CCC32)C1` (stereo not given), the GI50 in the assay on HCT-116 colon is 3.44 µM; with MALME-3M melanoma, 2210 nM; in the assay with M14 melanoma it was 14.2 µM; with K-562 leukemia it was 3.33 µM; in the assay with ACHN renal, 4.17 µM; in the assay on A549 NSCLC, 15.3 µM. Further, the GI50 is 14 µM in the assay with SK-MEL-2 melanoma, 6.58 µM with LOX IMVI melanoma, 12.2 µM in the assay on NCI-H460 lung and 18.8 µM in the assay on HOP-62 NSCLC. For the same molecule, the TGI with HCT-116 colon is 10.1 µM; in the assay on MALME-3M melanoma, 5.56 µM; in the assay on M14 melanoma, 31.7 µM; in the assay with K-562 leukemia, 14.2 µM; with ACHN renal it was 15.7 µM; in the assay on A549 NSCLC, 42.2 µM. For the same molecule, the TGI in the assay on SK-MEL-2 melanoma worked out at 28.2 µM; in the assay on LOX IMVI melanoma, 18.2 µM; with NCI-H460 lung it was 29.5 µM; in the assay with HOP-62 NSCLC it was 33.6 µM.
In the case of `CCCNc1ncnc2c1cnn2C`, the TGI with HCT-116 colon, in the assay on MALME-3M melanoma, with M14 melanoma, in the assay with K-562 leukemia, in the assay with ACHN renal and in the assay on A549 NSCLC was above 100 µM throughout. The TGI with SK-MEL-2 melanoma, with LOX IMVI melanoma, in the assay on NCI-H460 lung and in the assay on HOP-62 NSCLC was above 100 µM in each case.
In the case of `Brc1ccc2c(c1)-c1ccccc1C1=NCCN12`, the GI50 is 0.403 µM in the assay with HCT-116 colon; 1350 nM with MALME-3M melanoma; 1.48 µM in the assay with M14 melanoma; 0.857 µM in the assay with K-562 leukemia; 0.519 µM in the assay on ACHN renal; 0.548 µM in the assay on A549 NSCLC. For the same molecule, the GI50 in the assay with SK-MEL-2 melanoma is 1.87 µM; in the assay with LOX IMVI melanoma, 0.526 µM; with NCI-H460 lung it was 0.399 µM; in the assay with HOP-62 NSCLC, 0.962 µM. Further, the TGI was determined as 10.2 µM in the assay with HCT-116 colon; 2.97 µM in the assay with MALME-3M melanoma; 3.16 µM in the assay with M14 melanoma; 5.1 µM in the assay with K-562 leukemia; 12.4 µM with ACHN renal; 3.58 µM in the assay on A549 NSCLC. The TGI in the assay with SK-MEL-2 melanoma turned out to be 4.18 µM; with LOX IMVI melanoma, 10.6 µM; with NCI-H460 lung, 2.71 µM; with HOP-62 NSCLC, 8.02 µM.
As for `Cc1cccc(Cc2cnc(NC(=O)CCCOc3ccc(Cl)cc3)s2)c1`, the GI50 in the assay on HCT-116 colon is 3.36 µM; in the assay on MALME-3M melanoma it was 5380 nM; in the assay with M14 melanoma, 3.68 µM; with K-562 leukemia, 3.84 µM; with ACHN renal, 3.47 µM; with A549 NSCLC it was 3.94 µM. Also, the GI50 with SK-MEL-2 melanoma is above 100 µM; in the assay on LOX IMVI melanoma, 6.8 µM; with NCI-H460 lung, 3.32 µM; with HOP-62 NSCLC it was 5.57 µM. For the same molecule, the TGI in the assay on HCT-116 colon, in the assay on MALME-3M melanoma, in the assay with M14 melanoma, in the assay on K-562 leukemia, in the assay with ACHN renal and in the assay on A549 NSCLC was above 100 µM in each case. The TGI in the assay on SK-MEL-2 melanoma, with LOX IMVI melanoma, in the assay on NCI-H460 lung and with HOP-62 NSCLC was above 100 µM throughout.
In the case of `COc1cccc2c(Nc3ccc(C(=O)NCCN4CCNCC4)cc3)cc(-c3ccccc3)nc12`, the GI50 with HCT-116 colon was 30.9 µM; with MALME-3M melanoma, 21600 nM; in the assay on M14 melanoma, 20.1 µM; in the assay with K-562 leukemia it was 27.7 µM; in the assay with ACHN renal it was 18.8 µM; in the assay with A549 NSCLC, above 100 µM. Also, the GI50 with SK-MEL-2 melanoma was 19.9 µM; with LOX IMVI melanoma, 20.6 µM; with NCI-H460 lung, 35.1 µM; in the assay with HOP-62 NSCLC it was above 100 µM. Moreover, the TGI was above 100 µM in the assay on HCT-116 colon; 47.6 µM in the assay on MALME-3M melanoma; 38.7 µM in the assay with M14 melanoma; 75.3 µM in the assay with K-562 leukemia; 40.8 µM in the assay on ACHN renal; above 100 µM with A549 NSCLC. The TGI in the assay with SK-MEL-2 melanoma was 51.7 µM; with LOX IMVI melanoma, 45.9 µM; in the assay with NCI-H460 lung it was above 100 µM; with HOP-62 NSCLC it was above 100 µM.
Turning to `O=C(/C=C/N1CCN(c2cccc(Cl)c2)CC1)c1ccc(Cl)cc1`, the GI50 is 27.1 µM in the assay on HCT-116 colon; 4890 nM with MALME-3M melanoma; 19.6 µM in the assay on M14 melanoma; 28 µM with K-562 leukemia; 44.9 µM with ACHN renal; 31.9 µM in the assay on A549 NSCLC. For the same molecule, the GI50 is 35.3 µM in the assay with SK-MEL-2 melanoma, 32.3 µM in the assay with LOX IMVI melanoma, 33.6 µM with NCI-H460 lung and 48.4 µM in the assay on HOP-62 NSCLC. Also, the TGI was 70.4 µM in the assay on HCT-116 colon; 26.4 µM with MALME-3M melanoma; 42.3 µM with M14 melanoma; above 100 µM with K-562 leukemia; above 100 µM in the assay with ACHN renal; above 100 µM with A549 NSCLC. Further, the TGI is above 100 µM with SK-MEL-2 melanoma, 96.9 µM in the assay with LOX IMVI melanoma, above 100 µM with NCI-H460 lung and above 100 µM in the assay with HOP-62 NSCLC.
